Data set [1] concerns p53 protein. As to the kind of experiment: Overexpression of p53 protein, Western blot. It counts as cell-based. Particulars: 10 μM. Here is the method:
The compound AC014 is capable of inducing overexpression of p53 (FIG. 1).
The Western blot was carried out according to the protocol described in the following article: Amson R, Pece S, Lespagnol A, Vyas R, Mazzarol G, Tosoni D, Colaluca I, Viale G, Rodrigues-Ferreira S, Wynendaele J, Chaloin O, Hoebeke J, Marine J C, Di Fiore P P, Telerman A. Nat Med. 2011 Dec. 11; 18(1):91-9.
The following antibodies were used in the Western blot assay: anti-TCTP antibodies were generated against the whole human-derived TCTP. These polyclonal antibodies were purified by affinity column affinity coupled to TCTP (Agro-Bio). Anti-P53 1C12 mouse antibody (Cell Signaling Technology) was used at a dilution of 1/1000.
Secondary antibodies (antirabbit and antimouse) conjugated to HRP were used at a dilution of 1/5000 to visualize the signals by Western blots.
Background: In western blotting, separated proteins are transferred to a membrane and probed.

Data set [2] concerns human HCT116 cells. As to the kind of experiment: Inhibition of cell growth, CellTiter Glo assay. Particulars: for GI50: Homo sapiens. Here is the method:
The viability and proliferation of human HCT116 cells is measured using the “CellTiter Glo®” assay (Promega), which is a luminescent measure of the number of living cells. Sertraline and AC070 were tested at 10 concentrations and results are expressed as GI50, TGI, LC50 and IC50 relative to control cells (DMSO).
The CellTiter-Glo® assay is a homogeneous method for determining the number of viable cells in culture based on a quantification of the ATP present, an indicator of metabolically active cells. The homogeneous test procedure involves the addition of a single reagent (the CellTiter-Glo® reagent) directly to the cultured cells in serum-enriched medium.
The results of the test are reported in the following Tables 2 and 3 (Table 2: sertraline and Table 3: AC070): […]
(In general: ATP-based viability assays read luminescence as a measure of living cells.)

Data set [3] concerns the target T1, TCTP (Homo sapiens, UniProt P13693).
T1 sequence (P13693 1-172): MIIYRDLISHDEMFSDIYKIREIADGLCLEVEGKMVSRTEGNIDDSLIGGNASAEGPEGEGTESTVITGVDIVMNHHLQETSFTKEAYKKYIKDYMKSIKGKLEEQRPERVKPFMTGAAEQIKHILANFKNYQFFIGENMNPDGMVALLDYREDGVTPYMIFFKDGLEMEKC
Particulars: prior art section; read-out: affinity for TCTP, Kd; cited from earlier work.

The conditions of data set [4]: humans; cited from earlier work.
The target of data set [5] is T1, TCTP. As to the kind of experiment: Interaction with TCTP by surface plasmon resonance (SPR), Biacore T200. It counts as binding. Here is the method:
The interaction of the synthesized molecules with TCTP was evaluated by the surface plasmon resonance (SPR) technique using the Biacore T200 apparatus.
A beam of polarized monochromatic light illuminates a glass interface between two media with different refractive indices, since the angle of incidence is greater than the limiting angle, all the light is reflected, a phenomenon known as total internal reflection. There is then no refraction but an electromagnetic component of the light, the evanescent wave propagates over a distance equivalent to its own wavelength, perpendicular to the interface. At the level of the gold leaf located at the interface between the two media, a resonance between the gold plasmons and the evanescent wave is observed, which results in a loss of light energy in the beam reflected at a precise angle called the resonance angle. This angle is sensitive to the refractive index of the medium wherein the evanescent wave propagates.
A continuous measurement of the variations in the angle of refraction is carried out using a micro-refractometer producing a sensorgram that allows the fixation of the molecules injected into the microfluidic cell to be monitored in real time. The resonance signal is expressed in resonance units (RU) and reports what is present at a given time in the microfluidic cell.
Thus, TCTP is bonded to a chip consisting of a layer of dextran on a gold foil, which in turn is placed on a glass plate. This layer is sandwiched between a microfluidic cell and a prism.
The synthesized compounds are passed through the microfluidic cell and their interaction is evaluated through the received SPR signal (Table 1).

Data set [6] has as its system human cancer line HCT116 (colorectal carcinoma). As to the kind of experiment: Cytotoxic activity on HCT116, 72 hours incubation. It counts as cell-based. Here is the method: The cytotoxic activity of the prepared compounds was evaluated on the human cancer line HCT116 (colorectal carcinoma). The selected line was incubated at 37° C. in the presence of one of the prepared compounds added to the culture medium at various concentrations. The inhibitory concentration inducing 50% cell death (IC50) was determined after 72 hours incubation for each compound (Table 1).

Read-outs that look alike come from different tables or passages of the source.

By GI50 is commonly meant the concentration giving 50% growth inhibition. As a reminder, the Kd is the concentration at which binding is half-saturated. For the molecule `CN[C@H]1CC[C@@H](c2ccc(Cl)c(Cl)c2)c2ccccc21` [sertraline, reference compound], the “expression of the p53 protein” value in data set [1] is “induced”. For the same molecule, the TGI50 1 in data set [2] (HCT116, CellTiter Glo, determination 1) came out at 0.203 µM. Besides, the TGI50 2 in data set [2] (HCT116, CellTiter Glo, determination 2) was 0.229 µM. The TGI50 3 in data set [2] (HCT116, CellTiter Glo, determination 3) is 0.253 µM. Also, the TGI50 Mean in data set [2] (HCT116, CellTiter Glo, mean) came out at 0.228 µM. Besides, the TGI50 Median in data set [2] (HCT116, CellTiter Glo, median) was 0.227 µM. For the same molecule, the GI50 in data set [2] (HCT-116, read-out: GI50 1) was determined as 125 nM; in data set [2] (HCT-116, read-out: GI50 2) it was 141 nM; in data set [2] (HCT-116, read-out: GI50 3), 159 nM; in data set [2] (HCT-116, read-out: GI50 Mean), 142 nM; in data set [2] (HCT-116, read-out: GI50 Median), 140 nM; in data set [2] (HCT-116, read-out: cell growth inhibition constant GI50), 141 nM. Besides, the Kd in data set [3] is 198000 nM. For the same molecule, in data set [4], the “maximum tolerated dose (MTD)” value is 400 mg/day.

Usually IC50 stands for the point on the concentration scale where inhibition reaches its midpoint. A lower IC50 goes with higher potency. Take `c1ccc2c(c1)CCCC2c1ccc2ccccc2c1` (centres unmarked) [AC014, 1,2,3,4-tetrahydro-1,2′-binaphthalene]: the “affinity for TCTP (in words)” value in data set [5] is “excellent affinity”. Moreover, binding in data set [5] (TCTP bonded to chip, Biacore T200) was put at a Kd of 7000 ± 3000 nM. In addition, in data set [6] (Homo sapiens, HCT-116, HCT116, 72 hours incubation, concentration inducing 50% cell death), the IC50 came out at 8000 ± 1000 nM. For the same molecule, in data set [6] (compared with sertraline), the “antiproliferative activity profile (in words)” value is reported as “identical to that of sertraline”. In data set [1], the “expression of the p53 protein” value was “induces” and the “induction of p53 compared to sertraline” value is “more pronounced”.

The record behind these values is patent US20200253996A1, “TCTP INHIBITING AGENTS FOR THE TREATMENT OF PROLIFERATIVE DISEASES, INFECTIOUS DISEASES, ALLERGIES, INFLAMMATIONS AND/OR ASTHMA” (UNIVERSITE PARIS-SUD, priority 2017, published 2020).
